Assay results taken from patent publication US6776996B2, “Pesticidal matrices” (priority 1997, dated 2004).

Test system: H. virescens
Test: Field evaluation against tobacco budworms on tobacco in North Carolina
Assay type: in vivo
Conditions: 0.75 lb of ai/acre
Procedure: A field evaluation is conducted on tobacco grown near Clayton, N.C. A wettable powder composition of this invention (composition 46) at 2×10^11, 5×10^11, and 8×10^11 bodies/acre, Bacillus thuringiensis (DIPEL® 2X, Abbott Laboratories) at 1.0 lb wettable powder (WP)/acre, and acephate (ORTHENE® 75SP, available from Valent USA, Walnut Creek, Calif.) at 0.75 lb active ingredient (ai)/acre are compared for efficacy against H. virescens. Biological materials are suspended in water containing an insect gustatory stimulant (PHEAST® available from […], Fresno, Calif.); aqueous dilutions of acephate contained no PHEAST®. Treatments and untreated check are replicated four times (small plots) in a randomized complete block design. By using fine-hair brushes, 1- to 2-day old laboratory-reared H. virescens are placed on the underside of leaves in each plot. Natural infestation of H. virescens also occurred at the test site. Treatments are applied to tobacco about 2 hours before each artificial larval infestation on days 1 and 8. Treatments are applied with a tractor-mounted, CO2-pressurized boom sprayer which is calibrated to deliver 25 gallons/acre through a single D2-33 nozzle centered over each tobacco row. Boom pressure during application is 60 lb/in^2.
At 2 and 5 days after first application and 5 and 9 days after second application, live H. virescens are counted on 20 plants in each plot. Additionally, visual estimate of leaf damage caused by larval feeding is made 14 days after the second application using the rating scale shown below.

## COP(=O)(NC(C)=O)SC (centres unmarked) [Acephate, acephate]
Day of Test 3
  Mean Number of Live Larvae per 20 Plants: 6.0
Day of Test 8
  Mean Number of Live Larvae per 20 Plants: 5.8
Day of Test 13
  Mean Number of Live Larvae per 20 Plants: 1.2
Day of Test 17
  Mean Number of Live Larvae per 20 Plants: 0.8
Rating scale 0 (No Damage) to 4 (Severe Damage)
  Mean Plant Injury on Day 22 of Test: 0.2
